The record followed here is ChEMBL document CHEMBL1137449, “A refined agonist pharmacophore for protease activated receptor 2” (Bioorg Med Chem Lett, 2007).

Activity calls are given as the source filed them. No cut-off for these calls is given here. Square brackets hold non-standard residues; d marks the D form. Peptide text beside a SMILES is read from it. Phe(4-NO2) = N[C@@H](Cc1ccc([N+](=O)[O-])cc1)C(=O)O; hPhe = N[C@@H](CCc1ccccc1)C(=O)O

Assay [1] deals with T1, Proteinase-activated receptor 2 (Homo sapiens, UniProt P55085).
T1 sequence (P55085 whole entry): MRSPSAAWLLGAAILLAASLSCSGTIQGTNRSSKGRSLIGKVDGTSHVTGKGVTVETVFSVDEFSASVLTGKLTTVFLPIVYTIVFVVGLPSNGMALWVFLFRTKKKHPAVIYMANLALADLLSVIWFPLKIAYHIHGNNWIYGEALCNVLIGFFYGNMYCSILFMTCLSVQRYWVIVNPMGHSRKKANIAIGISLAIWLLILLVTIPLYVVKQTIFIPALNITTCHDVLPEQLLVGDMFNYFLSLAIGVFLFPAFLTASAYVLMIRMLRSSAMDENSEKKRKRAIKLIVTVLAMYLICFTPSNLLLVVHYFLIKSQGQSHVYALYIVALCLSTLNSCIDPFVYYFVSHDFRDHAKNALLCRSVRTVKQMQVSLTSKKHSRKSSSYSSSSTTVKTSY
The assay is described as follows: Agonist activity at PAR2 expressed in human HT29 cells assessed as intracellular calcium release. The class given is functional, cell-based, HT-29.

Assay [2] concerns the target Proteinase-activated receptor 2 (Homo sapiens) (UniProt P55085). The assay is described as follows: Agonist activity at PAR2 expressed in 2-furoyl-LIGRLI-NH2 treated human HT29 cells assessed as intracellular calcium response. To be noted: HT-29. The class given is functional, cell-based.

As for `CC[C@H](C)[C@H](NC(=O)[C@H](CCc1ccccc1)NC(=O)[C@H](CCCNC(=N)N)NC(=O)CNC(=O)[C@@H](NC(=O)[C@H](CC(C)C)NC(=O)[C@@H](N)CO)[C@@H](C)CC)C(N)=O` (H-SLIGR[hPhe]I-NH2), in assay [1], the concentration for a half-maximal effect (EC50) came out at 1800 nM.
For `CC[C@H](C)[C@H](NC(=O)[C@H](Cc1ccc([N+](=O)[O-])cc1)NC(=O)[C@H](CCCNC(=N)N)NC(=O)CNC(=O)[C@@H](NC(=O)[C@H](CC(C)C)NC(=O)[C@@H](N)CO)[C@@H](C)CC)C(N)=O` (H-SLIGR[Phe(4-NO2)]I-NH2), the EC50 in assay [1] was determined as 400 nM. For the same compound, the result in assay [2] was inactive.
